Data taken from patent US7655681B2, “Method of treating and diagnosing sleep disordered breathing and means for carrying out the method” (priority 2004, dated 2010).

How the values were obtained:
[1] = test system: patient with light to moderate OSA; assay: Controlled repeated dosing, repeated withdrawal study of zonisamide with polysomnographic recording; assay type: in vivo, human; conditions: for Sat <90%/hr (number of episodes reaching an oxygen saturation below 90% per hour of sleep): Day 0 baseline 4; for B-gluc (blood glucose concentration): Day 0 baseline 6.7; for CSAI (central sleep apnea index): Day 0 baseline 8; for AI (apnea index, number of obstructive apneas per hour of sleep): Day 0 baseline 16; for HI (hypopnea index, number of obstructive hypopneas per hour of sleep): Day 0 baseline 22; for BMI (body mass index): Day 0 baseline 26.5; for AHI (apnea/hypopnea index): Day 0 baseline 38; for MinSat (lowest oxygen saturation value reached during the sleep recording): Day 0 baseline 82; for DBP (diastolic blood pressure): Day 0 baseline 95; for SBP (systolic blood pressure): Day 0 baseline 165
Protocol: A controlled repeated dosing, repeated withdrawal study of zonisamide was undertaken in a patient (BMI 26.5) with light to moderate OSA (A/H index, 30 and 35 on previous screening). […] A baseline polysomographic recording (standard sleep montage, nasal pressure recording) was undertaken at baseline and zonisamide therapy was started at 100 mg o.d. orally (Zonegran® capsules) with an increase to 400 mg after two weeks and finally to 600 mg at the end of 12 weeks. Repeat sleep recordings were undertaken after 19 days (5 days on 400 mg) and after 90 days (6 days on 600 mg). The following key index data were recorded (Table 1).

[2] = cited from earlier work
[3] = test system: three male patients with light to moderate/severe OSA; assay: Uncontrolled repeated dosing study of zonisamide with polysomnography; assay type: in vivo, human; conditions: for AHI, mean for all patients: baseline mean 30; for BMI, mean for all patients: baseline mean 32; for Sat. min, mean for all patients: baseline mean 84
Protocol: Uncontrolled repeated dosing of zonisamide. An uncontrolled study of three male patients (mean BMI at baseline 32) with light to moderate/severe OSA treated with zonisamide up to an average of 177 days was performed. Polysomnography (standard sleep montage, nasal pressure recording) was undertaken at baseline. Zonisamide therapy was started at 50 or 100 mg o.d. orally (Zonegran® capsules). […] A repeat sleep study (follow-up 1) was undertaken. A further sleep study (follow-up 2) was performed after 165, 218 and 149 days at doses of 400, 600 and 200 mg, respectively. The follow-up 2 measurements were thus performed at a pharmacokinetical steady-state.

[4] = Day 19 (5 days on 400 mg o.d. orally)
[5] = Day 90 (6 days on 600 mg orally)
[6] = during treatment, 100 to 600 mg orally
[7] = starting already after 10 days of treatment
[8] = follow-up 1, mean dose 200 mg, mean 33 days of treatment
[9] = follow-up 2, mean dose 400 mg, mean 177 days of treatment
[10] = patient two, early titration phase, 50 mg zonisamide, simplified sleep recording

In the case of NS(=O)(=O)Cc1noc2ccccc12 [zonisamide, 1,2-benzisoxazole-3-methanesulfonamide], the “Sat <90%/hr (number of episodes reaching an oxygen saturation below 90% per hour of sleep)” value [1, 4] is reported as <1 per hour of sleep, the B-gluc (blood glucose concentration) [1, 4] is reported as 6.4 mM and the “CSAI (central sleep apnea index)” value [1, 4] is reported as 2 per hour of sleep. For the same molecule, the “AI (apnea index, number of obstructive apneas per hour of sleep)” value [1, 4] was 4 per hour of sleep, the “HI (hypopnea index, number of obstructive hypopneas per hour of sleep)” value [1, 4] was 9 per hour of sleep and the “BMI (body mass index)” value [1, 4] was 26.4 kg/m^2. For the same molecule, the “AHI (apnea/hypopnea index)” value [1, 4] was 13 per hour of sleep, the “MinSat (lowest oxygen saturation value reached during the sleep recording)” value [1, 4] was 89 and the “DBP (diastolic blood pressure)” value [1, 4] was 89 mmHg. The “SBP (systolic blood pressure)” value [1, 4] was 155 mmHg, the “Sat <90%/hr (number of episodes reaching an oxygen saturation below 90% per hour of sleep)” value [1, 5] was 0 per hour of sleep and the B-gluc (blood glucose concentration) [1, 5] was 5.9 mM. The “CSAI (central sleep apnea index)” value [1, 5] was 2 per hour of sleep, the “AI (apnea index, number of obstructive apneas per hour of sleep)” value [1, 5] was 2 per hour of sleep and the “HI (hypopnea index, number of obstructive hypopneas per hour of sleep)” value [1, 5] was 6 per hour of sleep. For the same molecule, the “BMI (body mass index)” value [1, 5] was 25.6 kg/m^2, the “AHI (apnea/hypopnea index)” value [1, 5] was 8 per hour of sleep and the “MinSat (lowest oxygen saturation value reached during the sleep recording)” value [1, 5] was 90. The “DBP (diastolic blood pressure)” value [1, 5] was 85 mmHg, the “SBP (systolic blood pressure)” value [1, 5] was 145 mmHg and the “change in total sleep time” value ([1]; after zonisamide) was “no clinically significant change”. For the same molecule, the side effects ([1]; during the study period, up to 600 mg orally, 90 days) was “No side effects were reported”, the “number of mixed events” value [1, 6] was “decreased in proportion to the number of obstructive events” and the “polysomnographically recorded sleep variables” value [1, 6] was “not systematically affected”. For the same molecule, the apnea reducing effect ([1]; obstructive and central events) was “potent apnea reducing effect”, the daytime sleepiness ([1]; spontaneous reporting, already after 10 days of treatment) was “markedly reduced” and the blood glucose concentration [1, 7] was “gradually reduced”. The blood pressure [1, 7] was “gradually reduced”, the nocturnal snoring episodes ([1]; subjective and spouse reports, soon after onset of treatment) was “clear reduction” and the half-life in plasma [2] was “about 60 hrs”. The apnea reducing effect ([3]; dosing levels from below 100 mg up to 600 mg daily) was “potent apnea reducing effect”, the “AHI, mean for all patients” value [3, 8] was 25 per hour of sleep and the “BMI, mean for all patients” value [3, 8] was 31 kg/m^2. The “Sat. min, mean for all patients” value [3, 8] was 85, the “AHI, mean for all patients” value [3, 9] was 22 per hour of sleep and the “BMI, mean for all patients” value [3, 9] was 30 kg/m^2. For the same molecule, the “Sat. min, mean for all patients” value [3, 9] was 86, the AHI ([3]; patient one, follow-up 1, dose 100 mg, 7 days of treatment, baseline 20) was 12 per hour of sleep and the BMI ([3]; patient one, follow-up 1, dose 100 mg, 7 days of treatment, baseline 28.3) was 28.3 kg/m^2. The “Sat. min (lowest oxygen saturation value reached during the sleep recording)” value ([3]; patient one, follow-up 1, dose 100 mg, 7 days of treatment, baseline 88) was 85, the AHI ([3]; patient one, follow-up 2, dose 200 mg, 149 days of treatment, baseline 20) was 11 per hour of sleep and the BMI ([3]; patient one, follow-up 2, dose 200 mg, 149 days of treatment, baseline 28.3) was 27.9 kg/m^2. For the same molecule, the “Sat. min (lowest oxygen saturation value reached during the sleep recording)” value ([3]; patient one, follow-up 2, dose 200 mg, 149 days of treatment, baseline 88) was 90, the BMI ([3]; patient three, follow-up 1, dose 100 mg, 10 days of treatment, baseline 35.0) was 35.1 kg/m^2 and the AHI ([3]; patient three, follow-up 1, dose 100 mg, 10 days of treatment, baseline 57) was 59 per hour of sleep. The “Sat. min (lowest oxygen saturation value reached during the sleep recording)” value ([3]; patient three, follow-up 1, dose 100 mg, 10 days of treatment, baseline 79) was 80, the BMI ([3]; patient three, follow-up 2, dose 600 mg, 218 days of treatment, baseline 35.0) was 33.5 kg/m^2 and the AHI ([3]; patient three, follow-up 2, dose 600 mg, 218 days of treatment, baseline 57) was 53 per hour of sleep. The “Sat. min (lowest oxygen saturation value reached during the sleep recording)” value ([3]; patient three, follow-up 2, dose 600 mg, 218 days of treatment, baseline 79) was 78, the AHI [3, 10] was 8 and the BMI [3, 10] was 31.3. The AHI ([3]; patient two, follow-up 1, dose 400 mg, 81 days of treatment, baseline 12) was 3 per hour of sleep, the BMI ([3]; patient two, follow-up 1, dose 400 mg, 81 days of treatment, baseline 31.4) was 30.7 kg/m^2 and the “Sat. min (lowest oxygen saturation value reached during the sleep recording)” value ([3]; patient two, follow-up 1, dose 400 mg, 81 days of treatment, baseline 86) was 91. For the same molecule, the AHI ([3]; patient two, follow-up 2, dose 400 mg, 165 days of treatment, baseline 12) was 3 per hour of sleep, the BMI ([3]; patient two, follow-up 2, dose 400 mg, 165 days of treatment, baseline 31.4) was 29.3 kg/m^2 and the “Sat. min (lowest oxygen saturation value reached during the sleep recording)” value ([3]; patient two, follow-up 2, dose 400 mg, 165 days of treatment, baseline 86) was 90. The daytime sleepiness ([3]; spontaneous reporting by the patients) was “overall positive effect”, the “polysomnographically recorded sleep variables” value ([3]; three patients, during treatment) was “not systematically affected” and the side effects ([3]; three patients, up to 600 mg, up to an average of 177 days) was “No significant side effects were reported”.
